Data: US20180250306A1, “ALDEHYDE CONJUGATES AND USES THEREOF” (ALDEYRA THERAPEUTICS, INC., priority 2015, published 2018)

Legend:
NFκB [1] = test: Western Blot of NFκB levels in cardiac fibroblasts; assay type: cell-based, neonatal rats
Method: (§1) Thirty hearts from neonatal rats were minced and digested (Neonatal Cardiomyocyte Isolation System, LK003303, Worthington). After tissue digestion and cell dissociation, cell suspensions were plated into 35 mm dishes or onto coverslips in wells of 24-well plates. Serum-free DMEM was added to the cell suspensions and the cells allowed to adhere for 2 hrs. After two hours, the cell suspension was removed and the adherent cells were fed with DMEM containing 10% fetal bovine serum (FBS). Cells were maintained in DMEM+10% FBS for 24 hours before treatments. Treatment duration was 24 hours.
(§2) Cell samples were divided in to 2 groups, stimulated with H2O2 or not stimulated with H2O2. […] The cells that were treated with H2O2 contained a final concentration of 0.001% in the wells. Drug was dissolved in 9.5% Captisol®, to a stock concentration of 5 mg/ml. […] Cells were treated for 24 hours then either fixed for immunostaining or collected as lysates for Western Blot analysis.
(§3) Whole cell lysates were used for Western blotting; nuclear and cytosolic fractions were not prepared. DMEM from cells plated in 35 mm plates was removed, the cells rinsed quickly in PBS, then incubated in 500 ul cold RIPA buffer for 20-30 minutes at 4° C. under gentle rocking. Following RIPA incubation, cells were scraped from the dish using cell scrapers and frozen at −80° C. overnight to increase cell lysing. […]

[2] = test system: Primary rat cortical cultures; test: LDH cytotoxicity assay, aldehyde-mediated cell death in neurons; assay type: cell-based
Method: Primary rat cortical cultures are placed in an incubator for 24 or 48 hours and treated with various concentrations of disclosed compounds. Then 20 μL of the culture media is removed for an LDH assay as described in Bergmeyer et al., Methods of Enzymatic Analysis, 3rd ed. (1983).

NFκB [3] = test: NFκB translocation to the nucleus of cardiac fibroblasts (immunostaining); assay type: cell-based, neonatal rats; conditions: unstimulated cells; for cells with NFκB localization in nuclei: 24 hours (untreated 76.6%)
Method: as §1, §2
After 24 hours of treatment, cells on cover slips were rinsed twice with PBS, fixed in 1% paraformaldehyde for 10 minutes then rinsed in PBS for immunostaining. Cells were permeabilized for 18 minutes in 0.1% Triton-X 100 in PBS, then rinsed three times in PBS for 15 minutes each. Following the rinses, cover slips were incubated in Image-IT FX Signal Enhancer (Invitrogen) to reduce background intensities in images. Subsequently, cells were washed three times 15 min with PBS, followed by one hour of blocking in 10% Normal Goat Serum Cells and 0.05% Triton-X 100, and then incubated overnight in 4° C. with primary antibodies diluted in PBS with 2% Normal Goat Serum and 0.05% Triton-X 100. Antibodies were applied at the following concentrations: Alpha-Smooth Muscle Actin 1:200 (V5228, Sigma-Aldrich), Vimentin 1:200 (V6630, Sigma-Aldrich) and NFκB 1:200 (C-20, Santa Cruz Biotech). Following overnight incubation, cover slips were brought to room temperature over 10 minutes and then rinsed in PBS for 15 min. […]

circulating cytokines = conditions: LPS model, mouse; cited from earlier work
JNK = test: Western Blot of MAPK signaling pathways in cardiac fibroblasts; assay type: cell-based, neonatal rats; conditions: NS2 treatment at any level; single blot
Method: as §1, §2, §3

CC(C)(O)c1nc2ccc(Cl)cc2cc1N [NS2, 2-(3-amino-6-chloroquinolin-2-yl)propan-2-ol]
NFκB level (Western Blot, whole cell lysate) (NFκB [1]; H2O2-stimulated cells, 100 μM or 1 mM): significant decreases | NFκB level (Western Blot, whole cell lysate) (NFκB [1]; non-stimulated cells): significantly decreased | aldehyde-mediated cell death in neurons [2]: prevent | cells with NFκB localization in nuclei (NFκB [3]; 10 μM): 30.7% | cells with NFκB localization in nuclei (NFκB [3]; 100 μM): 35.7% | cells with nuclear NFκB (NFκB [3]; 1 mM, very few cells, not conclusive): no cells | activation of IL-1β (circulating cytokines): significantly decreased | activation of IL-17 (circulating cytokines): significantly decreased | activation of TGF-β (circulating cytokines): significantly decreased | levels of the anti-inflammatory cytokine Interleukin 10 (IL-10) (circulating cytokines): significantly increasing | JNK-pJNK (Western Blot) (JNK): no changes
